Measured values reported in US20110052723A1, “USE OF COMPOUNDS BINDING TO THE SIGMA RECEPTOR LIGANDS FOR THE TREATMENT OF NEUROPATHIC PAIN DEVELOPING AS A CONSEQUENCE OF CHEMOTHERAPY” (priority 2008, published 2011).

Key:
[1] = system: sigma receptor; conditions: Sigma 1 and Sigma 2; cited from earlier work
[2] = system: CD-1 mice; test: Paclitaxel-induced mechanical allodynia, Von Frey test; format: in vivo
Method: Procedure for assessment of mechanical allodynia. To assess mechanical allodynia, paw withdrawal thresholds were measured using a Dynamic Plantar Aesthesiometer (Ugo Basile, Italy). The electronic Von Frey device employs a single nonflexible filament which applies a progressively increasing force (from 0 to 10 g) against the plantar surface of the hind paw over a 20 s period. […] The day of the experiment, mice were placed individually in test compartments (9×9×14 cm) with a wire mesh bottom and allowed to acclimatize to them for 2 h. After habituation, each mouse was tested three times alternately in each hind paw.

[3] = system: CD-1 mice; test: Paclitaxel-induced cold allodynia, acetone test
Method: Experiments were performed in CD-1 mice (Charles River, U.S.A.) with at least n=10/experimental group. […] Control animals received the same volume of solvent (a mixture of ethanol and cremophor EL)
Mechanical allodynia was evaluated with an electronically driven Von Frey filament (Dynamic Plantar Aesthesiometer, Ugo Basile, Varese, Italy) as previously described (Nieto et al., 2008), and cold allodynia was evaluated using the acetone drop method (Polomano et al., 2001; Smith et al., 2004).
In addition, in order to study the influence of the sigma 1 receptor in this process the difference in development of allodynia was determined using wild-type mice and sigma 1-receptor knock-out-mice.
Therefore, the cumulative dose was 10 mg/kg per mouse.
BD-1063 was dissolved in normal saline just before administration and applied at doses of 8, 16, 32 or 64 mg/kg subcutaneously.
The response of the animals to the different nociceptive stimuli was tested subsequently during 2-4 weeks, depending on the test (see below), without any additional treatment. Each animal was tested only in one nociceptive model. […] Each animal received only one dose of BD-1063 and was tested in only one nociceptive model.
Procedure for assessment of cold allodynia. Cold allodynia was tested as previously described by Smith et al., 2004, by gently touching the plantar skin of the hind paws with an acetone bubble formed with a syringe connected to a thin polyethylene tube. The mice were housed and habituated for 30 min in transparent plastic boxes (7×7×13 cm) with a floor made of wire mesh. After the adaptation period, acetone was applied alternately three times to each paw at intervals of 30 s, and the duration and frequency of licking or biting were recorded. A small mirror was placed behind the chambers to allow clear observation of the paws. The time spent licking or biting the paw was recorded by a stopwatch and represented as the cumulative time of licking/biting in the six measurements. Since licking persisting more than 10 s in the experiments was very unusual, a cut-off time of 10 s was used for each trial.
Therefore, the day 10, after the habituation period to the apparatus, baseline latencies were recorded, 30 min later BD-1063 or saline was injected s.c. and paw withdrawal latencies were assessed again 30, 60, 90, 120 and 180 minutes after the injection.

[4] = system: patients; conditions: paclitaxel 135 mg/m^2; cited from earlier work
[5] = sigma-1-receptor knockout animals, paclitaxel 2 mg/kg i.p. once daily during 5 days
[6] = wild-type animals, paclitaxel 2 mg/kg i.p. once daily during 5 days

## CC(C)=CCN1CCC2(C)c3cc(O)ccc3CC1C2C (stereo not shown) [pentazocine]
[1]
  affinity of the sigma receptors to analgesics: very high affinity

## CN1CCN(CCc2ccc(Cl)c(Cl)c2)CC1 [BD-1063]
[2]; single s.c. injection on day 10, 32 or 64 mg/kg, dose-dependent, significantly different from saline
  expression of paclitaxel-induced mechanical allodynia (threshold force for paw withdrawal): inhibited the expression of paclitaxel-induced mechanical allodynia
[3]; BD-1063 32 mg/kg 30 min before each paclitaxel injection (2 mg/kg i.p.), days 1 to 5, tested to day 24
  development of paclitaxel-induced cold allodynia (duration of hind paw licking/biting): inhibited the development of cold allodynia
[3]; single s.c. injection on day 10, 8, 16, 32 or 64 mg/kg, dose-dependent, significantly different from saline
  expression of paclitaxel-induced cold allodynia (duration of hind paw licking/biting): inhibited the expression of paclitaxel-induced cold allodynia

## CC(=O)O[C@H]1C(=O)[C@@]2(C)[C@H]([C@H](OC(=O)c3ccccc3)[C@]3(O)C[C@H](OC(=O)[C@H](O)[C@@H](NC(=O)c4ccccc4)c4ccccc4)C(C)=C1C3(C)C)[C@]1(OC(C)=O)CO[C@@H]1C[C@@H]2O [paclitaxel, Paclitaxel]
[2]; paclitaxel 2 mg/kg i.p. during 5 days, vs pre-treatment and vehicle
  mechanical allodynia (threshold force for paw withdrawal) on day 10: induced mechanical allodynia
[2]; [5]
  paclitaxel-induced mechanical allodynia: not significantly expressed
[2]; treated with paclitaxel
  animals showing a reduction of the mechanical threshold: 96%
[2]; [6]
  time of maximal paclitaxel-induced mechanical allodynia after the first injection: 10 days
[4]
  patients progressing to dose-limiting neurotoxicity: 0%
[3]; control mice, paclitaxel 2 mg/kg i.p. once daily during 5 days
  time of maximal paclitaxel-induced cold allodynia after the first injection: 10 to 14 days
[3]; paclitaxel 2 mg/kg i.p. once daily during 5 days
  animals with significantly increased time licking/biting the stimulated paw (paclitaxel-responder animals): 67%
[3]; [5]
  paclitaxel-induced cold allodynia: not significantly expressed
[3]; [6]
  time of maximal paclitaxel-induced cold allodynia after the first injection: 10 days
